# Experiment: Phase I/II dose escalation: safety and tolerability (DLT, TEAE)
# Format: in vivo
# Description: This Phase 1/2, FIH, open-label, multi-center, single-arm, dose-escalation study was conducted in pts with histologically or cytologically confirmed advanced solid tumors or R/R AML.
# In the absence of worrisome toxicity, the remaining pts could be enrolled and dosed in that cohort. Safety evaluations were performed by investigators, the medical monitor, and the Sponsor. A Safety Monitoring Committee determined dose levels to be administered during dose escalation based on data available from the current and previous dose levels.
smiles,measurement,setting,value
CN1CCN(Cc2ccc(NC(=O)c3[nH]ncc3Nc3ncnc4[nH]ccc34)cc2)CC1 [FN-1501],"Abdominal pain, patients with event","226 mg/day, N = 4",0
same,"Back pain, Grade ≥ 3 TEAE, n (%)","226 mg/day, N = 4",2
same,"Back pain, patients with event","226 mg/day, N = 4",2
same,"Constipation, patients with event","226 mg/day, N = 4",0
same,"Decreased appetite, patients with event","226 mg/day, N = 4",1
same,"Diarrhea, patients with event","226 mg/day, N = 4",3
same,"Diarrhoea, Grade ≥ 3 TEAE, n (%)","226 mg/day, N = 4",1 (25)
same,"Dizziness, patients with event","226 mg/day, N = 4",1
same,"Dyspnea, patients with event","226 mg/day, N = 4",0
same,"Fatigue, patients with event","226 mg/day, N = 4",0
same,"Hyponatraemia, Grade ≥ 3 TEAE, n (%)","226 mg/day, N = 4",1
same,"Hypophosphataemia, Grade ≥ 3 TEAE, n (%)","226 mg/day, N = 4",1 (25)
same,"Infusion related reaction, Grade ≥ 3 TEAE, n (%)","226 mg/day, N = 4",1 (25)
same,"Infusion-related reaction, patients with event","226 mg/day, N = 4",1
same,"Iron deficiency anaemia, Grade ≥ 3 TEAE, n (%)","226 mg/day, N = 4",1 (25)
same,"Nausea, patients with event","226 mg/day, N = 4",1
same,"Oedema peripheral, patients with event","226 mg/day, N = 4",0
same,"Pneumonia, Grade ≥ 3 TEAE, n (%)","226 mg/day, N = 4",1 (25)
same,"Pyrexia, patients with event","226 mg/day, N = 4",0
same,"Thrombocytopenia, Grade ≥ 3 TEAE, n (%)","226 mg/day, N = 4",1 (25)
same,Total number of TEAEs,"226 mg/day, N = 4",46
same,Total patients with at least 1 TEAE,"226 mg/day, N = 4",4
same,"Vomiting, patients with event","226 mg/day, N = 4",2
same,Maximum tolerated dose (MTD),"IV TIW 2 weeks on, 1 week off",170 mg/day
same,Maximum tolerated dose (MTD),"IV three times a week for 2 weeks, 21-day cycles",170 mg
same,"Abdominal distension, Grade ≥ 3 TEAE, n (%)","Total, N = 48",1 (2)
same,"Abdominal pain, Grade ≥ 3 TEAE, n (%)","Total, N = 48",1
same,"Abdominal pain, patients with event","Total, N = 48",9
same,"Acute kidney injury, Grade ≥ 3 TEAE, n (%)","Total, N = 48",1
same,"Adrenal insufficiency, Grade ≥ 3 TEAE, n (%)","Total, N = 48",1 (2)
same,"Anaemia, Grade ≥ 3 TEAE, n (%)","Total, N = 48",1 (2)
same,"Aspartate aminotransferase increased, Grade ≥ 3 TEAE, n (%)","Total, N = 48",1
same,"Back pain, patients with event","Total, N = 48",6
same,"Bacteraemia, Grade ≥ 3 TEAE, n (%)","Total, N = 48",1
same,"Bacterial sepsis, Grade ≥ 3 TEAE, n (%)","Total, N = 48",1
same,"Blood alkaline phosphatase increased, Grade ≥ 3 TEAE, n (%)","Total, N = 48",1 (2)
same,"Blood bilirubin increased, Grade ≥ 3 TEAE, n (%)","Total, N = 48",1 (2)
same,"Blood creatinine increased, Grade ≥ 3 TEAE, n (%)","Total, N = 48",1
same,"Catheter site infection, Grade ≥ 3 TEAE, n (%)","Total, N = 48",1
same,"Constipation, patients with event","Total, N = 48",7
same,"Decreased appetite, patients with event","Total, N = 48",6
same,"Dehydration, Grade ≥ 3 TEAE, n (%)","Total, N = 48",1
same,"Delirium, Grade ≥ 3 TEAE, n (%)","Total, N = 48",1
same,"Dizziness, patients with event","Total, N = 48",7
same,"Dyspnea, patients with event","Total, N = 48",6
same,"Fatigue, patients with event","Total, N = 48",15
same,"Hypophosphataemia, Grade ≥ 3 TEAE, n (%)","Total, N = 48",1
same,"Hypoxia, Grade ≥ 3 TEAE, n (%)","Total, N = 48",1
same,"Infusion related reaction, Grade ≥ 3 TEAE, n (%)","Total, N = 48",1
same,"Infusion-related reaction, patients with event","Total, N = 48",7
same,"Iron deficiency anaemia, Grade ≥ 3 TEAE, n (%)","Total, N = 48",1
same,"Lethargy, Grade ≥ 3 TEAE, n (%)","Total, N = 48",1
same,"Lipase increased, Grade ≥ 3 TEAE, n (%)","Total, N = 48",1 (2)
same,"Lung infection, Grade ≥ 3 TEAE, n (%)","Total, N = 48",1
same,"Neutropenia, Grade ≥ 3 TEAE, n (%)","Total, N = 48",1
same,"Oedema peripheral, patients with event","Total, N = 48",5
same,"Peritonitis, Grade ≥ 3 TEAE, n (%)","Total, N = 48",1 (2)
same,"Pneumonia aspiration, Grade ≥ 3 TEAE, n (%)","Total, N = 48",1 (2)
same,"Pneumothorax, Grade ≥ 3 TEAE, n (%)","Total, N = 48",1 (2)
same,"Pyrexia, patients with event","Total, N = 48",5
same,"Sepsis, Grade ≥ 3 TEAE, n (%)","Total, N = 48",1 (2)
same,"Stomatitis, Grade ≥ 3 TEAE, n (%)","Total, N = 48",1
same,"Syncope, Grade ≥ 3 TEAE, n (%)","Total, N = 48",1 (2)
same,"Thrombocytopenia, Grade ≥ 3 TEAE, n (%)","Total, N = 48",1
same,Total number of TEAEs,"Total, N = 48",381
same,Total patients with at least 1 TEAE,"Total, N = 48",45
same,"Vascular access complication, Grade ≥ 3 TEAE, n (%)","Total, N = 48",1
same,"Grade 1–2 diarrhea (TEAE), pts","abstract, all doses",26%
same,"Grade 1–2 fatigue (TEAE), pts","abstract, all doses",34%
same,"Grade 1–2 nausea (TEAE), pts","abstract, all doses",32%
same,"Treatment-related adverse events (TRAEs), pts",all doses 2.5 to 226 mg IV,64%
same,"Abdominal distension, pts","all doses, N = 48",4
same,"Gastrointestinal (GI) disorders, pts","all doses, N = 48",30 (63%)
same,"Grade 1 or 2 fatigue, pts","discussion, all doses",21%
same,"Grade 1 or 2 nausea, pts","discussion, all doses",19%
same,DLTs,doses of 170 mg or lower,No DLTs

# Reference: PMC10177510, “A Multicenter, Open-Label, Phase I/II Study of FN-1501 in Patients with Advanced Solid Tumors” (Cancers, 2023)
